# Legend:
# [1] = system: poly-ADP-ribose (PAR); assay: Western blot of PAR levels in xenograft tumors; format: in vivo, mouse; conditions: 24 h post treatment (FIGS. 9A-9B)
# Experimental: Western Blot analyses. Western blot analysis of protein levels was conducted by loading 30 μg of whole cell lysate onto a 4-20% polyacrylamide gel. Total protein was transferred to a nitrocellulose membrane. After blocking with 5% milk, membranes were incubated with primary antibodies. Antibodies used were: Rabbit monoclonal anti-Fumarase (D9C5,Cell Signaling Technologies) 1:1000 in 5% BSA, mouse monoclonal anti-SDHB (21A11AE7, Abcam) 1:1000 in % 5 milk, mouse monoclonal anti-Vinculin (SPM227, Abcam) 1:1000 in 5% milk, rabbit polyclonal anti-Histone 3 Lysine 36 trimethyl (9050, Abcam) 1:500 in 5% BSA, anti-Histone 3 Lysine 9 trimethyl (D4W1U, Cell Signaling Technologies) 1:1000 in 5% BSA, mouse monoclonal anti-Beta Actin (60008, Protein Tech) 1:5000 5% milk, rabbit Polyclonal anti-Histone H3 (ab1791, Abcam 1:5000 5% BSA), rabbit Polyclonal anti-PAR (4336-BPC-100, Trevigen) 1:5000 5% BSA, mouse monoclonal anti-GAPDH (60004 Protein Tech) 1:5000 5% milk, mouse monoclonal anti-BRCA2 (ab1, Millipore, 1:1000 5% Milk), mouse monoclonal anti-BRCA1 (D-9, Santa Cruz, 1:200 5% milk), mouse monoclonal anti-RAD51(14B4 Novus bio, 1:1000 5% milk). Patient sample blots were reprobed. […] Doxycycline induced knockdown was monitored by western blot as well as by RFP fluorescence from the internal and dox-inducible reporter on the TRIPZ construct. […]
# [2] = system: HLRCC UOK 262 xenograft tumors; assay: Tumor growth delay assay, UOK 262 xenografts; format: in vivo, mouse; conditions: BMN-673 0.5 mg/kg gavage daily, started at average tumor size 250 mm^3 (FIG. 4M)
# Source text: In vivo efficacy studies: HEK293FT xenografts. Female athymic nu/nu mice (Hsd:Athymic Nude-Foxnlnu, Envigo) were used for all in vivo xenograft studies. Mice were quarantined for at least 1 week before experimental manipulation. Tumors were formed using shRNA-expressing versions of the tumorigenic human embryonic kidney cell-derived line, HEK293FT. HEK293FT is a subline of HEK293 cells that has been transformed by expression of SV40 Large T-antigen. […], or shCTRL (non-targeted control) expressing HEK293FT cells were implanted subcutaneously (5×10^6 cells in 0.1 cc PBS) in the right flank of nude mice. Two efficacy studies were conducted. In one, mice were randomized into treatment and non-treated groups (10 mice/group) at day 3, with treatment initiation 4 days post implant. In a second independent in vivo efficacy study, mice were injected as above with 10 mice per group, and treatment was started only once the tumor volumes reached […]. For both studies, mice were visually observed daily and tumors were measured three times per week by calipers to determine tumor volume using the formula: Volume=L×W×W×0.532. Mice were fed with a grain based rodent diet containing Doxycycline at 200 mg/kg (Bioserv, Catalog #S3888). […] P-values were determined by ANOVA with repeated measures. […]
compound,measurement,setting,value
"Cn1ncnc1[C@H]1c2n[nH]c(=O)c3cc(F)cc(c23)N[C@@H]1c1ccc(F)cc1 [BMN-673, BMN-673 (Talazoparib)]","PAR levels by western blot, SDHB knockdown vs shCTRL tumors",[1],reduced to the same extent
same,"tumor growth delay, UOK 262 xenografts",[2],substantial growth delay
